Values joined by “and” are separate entries in the source; they are usually repeats but may differ in a detail not shown here. Equal values may be shown once. Read-outs that look alike come from different tables or passages of the source. One block for each compound: values may come before it.
Legend:
E. coli (ATCC 25922) = assay: Inactivation of E. coli by disinfectants (membrane filter enumeration, contact time 5 min); assay type: cell-based, Escherichia coli; settings: for log reduction at 475 µg/mL / EC (3-log inactivation) / log reduction at 1500 µg/mL: Escherichia coli, ATCC25922, 5 min; for log reduction at 475 µg/mL: dose 475 mg L-1; for log reduction at 475 µg/mL / log reduction at 1500 µg/mL: 5 min; for log reduction at 1500 µg/mL: dose 1500 mg L-1, read-out: Log (N/N0)
Procedure, shortened: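 E. coli ATCC 25922 (10^6‒10^7 cells/mL) exposed to a series of DBP doses in 10 mM PBS (pH 7.2; pH effect tested at 6.2, 7.2, 8.2) for 5 min at 22 ± 1 °C. Survivors enumerated by membrane filtration on m-FC medium at 45 °C for 24 h; inactivation relative to undisinfected control.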

S. aureus (ATCC 25923) = assay: Inactivation of S. aureus (contact time 5 min); assay type: cell-based, Staphylococcus aureus; settings: Staphylococcus aureus, ATCC25923, 5 min, dose 300 mg L-1, pH 7.2, contact time 5 min
Protocol: The chemicals and reagents used are detailed in Supplementary Note 1. The bacteria E. coli (ATCC 25922) and S. aureus (ATCC 25923) were cultured aerobically in Luria-Bertani broth (Sigma-Aldrich) and Tryptone Soya broth (Oxoid), respectively, at 37 °C for 16 h. The fungus C. albicans (ATCC 14053) was aerobically cultured in Sabouraud Dextrose broth (Difco) at 37 °C for 24 h. The microorganism cells were harvested by centrifugation at 1200×g (10 min, 4 °C) and resuspended in phosphate-buffered saline (PBS, 10 mM, pH 7.2). The disinfection experiments were performed in PBS solutions (10 mM, pH 7.2) with an initial concentration of E. coli, S. aureus, or C. albicans of 10^6‒10^7 cells per milliliter. A contact time of 5 min was used in accordance with the recommended time range of 0.25–10 min by USEPA for surface disinfection. Preliminary tests were conducted to determine the appropriate range of DBP doses. The appropriate dose range was established when the lowest and highest doses could achieve <1-log and >3-log of microbial inactivation, respectively. Based on the preliminary results, a series of doses of DBPs were added to the cell suspensions at room temperature (22 ± 1 °C). After the contact time of 5 min, the microorganism cells were enumerated following a membrane filter method. Briefly, serial 10-fold dilutions were conducted for the disinfected samples and the control sample without disinfection. Each diluted suspension was subjected to filtration through 0.45-μm membrane, which was then placed on a petri dish. The Petri dishes containing E. coli, S. aureus, and C. albicans were incubated in m-FC medium (Becton Dickinson & Co) at 45 °C for 24 h, in Tryptone Soya broth at 37 °C for 24 h and in Sabouraud Dextrose broth at 37 °C for 24 h, respectively. After incubation, the colony-forming units within a statistically reasonable range (20–80) were counted.

physchem = settings: for half-life at 10 mg L−1: pH 8.2; for Ln (C/C0): seawater pH 8.2, solar irradiation
Protocol: The solar photolysis experiments were conducted in a chamber equipped with eight simulated sunlight full-spectrum lamps (BlueMax 5900, Full Spectrum Solutions). The temperature in the chamber was maintained at 20 °C. The total intensity of simulated sunlight was determined using a digital photometer (DT-1010B, Shenzhen Golden Octopus, China). Quartz flasks were positioned in the chamber where the total intensity of simulated sunlight was 4.79 ± 0.04 mW cm^−2 for each quartz flask. […] A DBP was added at 10 mg L^−1 to 50 mL pretreated seawater (pH 8.2) in the quartz flasks and exposed to the simulated solar irradiation for 0‒96 h. Every 8 h, the quartz flasks were rotated in and out of the chamber, and the sample volume was determined and adjusted with ultrapure water to account for any water evaporation. During the solar irradiation experiments, the sample was adjusted to pH 6.2 and 7.2 or maintained at pH 8.2 by adding 4 mM phosphate buffer (pH 6.2, 7.2, and 8.2, respectively).
(§1) For the DBP samples with and without sunlight, aliquots were taken at a specific reaction time. The sample aliquots were analyzed using Agilent high-performance liquid chromatography (HPLC) equipped with a Poroshell 120 EC-C18 column (4.6 × 150 mm, 4 µm particle size, Agilent) and a UV detector. The mobile phase, consisting of water (pre-adjusted to pH 2 with phosphoric acid) and acetonitrile at 50/50 (v/v), was applied at a flow rate of 1.0 mL min^−1. PCMX, 2,4-dihalophenols and 5-halosalicylic acids were detected at the wavelength of 230 nm. 2,5-Dihalohydroquinones and 2,6-DCQ were detected at the wavelength of 280 nm. All the degradation experiments were conducted in duplicate.

[1] = Degradation in seawater in darkness (pH 6.2, 7.2, 8.2); settings: for Ln (C/C0): seawater pH 8.2, darkness
Protocol: To study the DBP degradation in seawater in darkness, a DBP was added at 10 mg L^−1 to 50 mL pretreated seawater (pH 8.2) in the quartz flasks. The flasks were wrapped with aluminum foil to simulate the dark condition. The samples were kept at 20 °C in darkness for 0‒120 h, during which the sample was adjusted to pH 6.2 and 7.2 or maintained at pH 8.2 by adding 4 mM phosphate buffer (pH 6.2, 7.2, and 8.2, respectively).
as §1

Structure (SMILES): Oc1ccc(Cl)cc1Cl [2,4-DCPh, 2,4-Dichlorophenol]
- log reduction at 475 µg/mL (E. coli (ATCC 25922); pH 6.2, read-out: Log (N/N0), E. coli, pH 6.2): 3.02
- EC (3-log inactivation) (E. coli (ATCC 25922); pH 7.2, read-out: Dose for achieving 3-log inactivation of E. coli): 472 µg/mL
- log reduction at 475 µg/mL (E. coli (ATCC 25922); pH 7.2, read-out: Log (N/N0), E. coli, pH 7.2): 3.32
- log reduction at 475 µg/mL (E. coli (ATCC 25922); pH 8.2, read-out: Log (N/N0), E. coli, pH 8.2): 3.29
- E. coli inactivation rate constant k (E. coli (ATCC 25922); pH 7.2, contact time 5 min): 0.30 L mg‒1 h‒1
- log reduction at 300 µg/mL (S. aureus (ATCC 25923); pH 7.2, read-out: Log (N/N0), S. aureus): 0.626
- half-life at 10 mg L−1 (physchem; buffer): 45 h
- Ln (C/C0) (physchem; 0 h): 0
- Ln (C/C0) ([1]; 0 h): 0
- Ln (C/C0) ([1]; 24 h): 0.008094 and 0.006005
- Ln (C/C0) ([1]; 48 h): 0.007156 and 0.006397

- half-life at 10 mg L−1 (physchem; pretreated seawater under simulated solar irradiation): 0.16 h
- Ln (C/C0) (physchem; 0 min): 0
- Relative concentration remaining (1 at 0 min) ([1]; pH 6.2, degradation time 0 min): 1
- Relative concentration remaining (1 at 0 min) ([1]; pH 6.2, degradation time 15 min): 0.9903 and 1.013
- Relative concentration remaining (1 at 0 min) ([1]; pH 6.2, degradation time 30 min): 1.0399 and 0.9876
- Relative concentration remaining (1 at 0 min) ([1]; pH 6.2, degradation time 60 min): 1.018 and 0.9782
- Relative concentration remaining (1 at 0 min) ([1]; pH 6.2, degradation time 90 min): 1.002 and 0.9911
- Relative concentration remaining (1 at 0 min) ([1]; pH 6.2, degradation time 120 min): 0.974 and 0.967
- Relative concentration remaining (1 at 0 min) ([1]; pH 6.2, degradation time 180 min): 0.9787 and 0.9462
- Relative concentration remaining (1 at 0 min) ([1]; pH 6.2, degradation time 240 min): 0.9527 and 0.9358
- Relative concentration remaining (1 at 0 min) ([1]; pH 7.2, degradation time 0 min): 1
- Relative concentration remaining (1 at 0 min) ([1]; pH 7.2, degradation time 15 min): 1.006 and 0.9535
- Relative concentration remaining (1 at 0 min) ([1]; pH 7.2, degradation time 30 min): 0.9742 and 0.9233
- Relative concentration remaining (1 at 0 min) ([1]; pH 7.2, degradation time 45 min): 0.8634 and 0.8365
- Relative concentration remaining (1 at 0 min) ([1]; pH 7.2, degradation time 60 min): 0.7743 and 0.7531
- Relative concentration remaining (1 at 0 min) ([1]; pH 7.2, degradation time 90 min): 0.6443 and 0.5863
- Relative concentration remaining (1 at 0 min) ([1]; pH 7.2, degradation time 120 min): 0.5356 and 0.4974
- Relative concentration remaining (1 at 0 min) ([1]; pH 7.2, degradation time 180 min): 0.3959 and 0.345
- Relative concentration remaining (1 at 0 min) ([1]; pH 8.2, degradation time 0 min): 1
- Relative concentration remaining (1 at 0 min) ([1]; pH 8.2, degradation time 3 min): 0.7301 and 0.7188
- Relative concentration remaining (1 at 0 min) ([1]; pH 8.2, degradation time 8 min): 0.5509 and 0.4986
- Relative concentration remaining (1 at 0 min) ([1]; pH 8.2, degradation time 12 min): 0.3915 and 0.3688
- Relative concentration remaining (1 at 0 min) ([1]; pH 8.2, degradation time 16 min): 0.2832 and 0.2676
- Relative concentration remaining (1 at 0 min) ([1]; pH 8.2, degradation time 20 min): 0.2193 and 0.1797
- Relative concentration remaining (1 at 0 min) ([1]; pH 8.2, degradation time 25 min): 0.1418 and 0.1248
- half-life at 10 mg L−1 ([1]; pretreated seawater in darkness, pH 8.2): 9 min
- Ln (C/C0) ([1]; 0 min): 0
Structure (SMILES): Oc1cc(Br)c(O)cc1Br [2,5-DBHQ, 2,5-dibromohydroquinone]
- log reduction at 1500 µg/mL (E. coli (ATCC 25922); pH 6.2, E. coli, pH 6.2): 1.35
- log reduction at 1500 µg/mL (E. coli (ATCC 25922); pH 7.2, E. coli, pH 7.2): 3.28
- log reduction at 1500 µg/mL (E. coli (ATCC 25922); pH 8.2, E. coli, pH 8.2): 3.84
- EC (3-log inactivation) (E. coli (ATCC 25922); pH 7.2, contact time 5 min, read-out: Dose for achieving 3-log inactivation of E. coli): 1450 µg/mL
- E. coli inactivation rate constant k (E. coli (ATCC 25922); pH 7.2, contact time 5 min): 0.03 L mg‒1 h‒1
- log reduction at 300 µg/mL (S. aureus (ATCC 25923); pH 7.2, S. aureus, read-out: Log (N/N0)): 0.62

— PMC11161644, “An effective and rapidly degradable disinfectant from disinfection byproducts” (Nature Communications, 2024)
